Data: patent US20040198653A1, “Pharmaceutical compositions which inhibit proliferation of pituitary adenomas and method of use thereof” (priority 2001, published 2004)
Where a SMILES comes first, the peptide text is derived from it. Bridges are numbered along the chain shown (N, C = ends). [ ]: non-standard residue; d: D form. The star is where a group is joined. Gly(N-2-aminoethyl) = NCCNCC(=O)O; 3Pal = N[C@@H](Cc1cccnc1)C(=O)O; Tic = O=C(O)[C@@H]1Cc2ccccc2CN1; X1 = Nc1ccn(CC(=O)*)c(=O)n1; Abu = CC[C@H](N)C(=O)O; Bn = c1ccc(C*)cc1

Legend:
pituitary adenoma cells [1] = assay: Cell proliferation: CELLTITER 96 Aqueous (MTS/PMS) assay, number of viable cells; type: cell-based; conditions: 10^-9 M, 48 hours incubation, medium with 10% FBS, absorbance at 490 nm
Procedure: The effects of SSTR selective agonists on pituitary adenoma cell proliferation were assessed by the CELLTITER 96 Aqueous Non-Radioactive Cell Proliferation Assay (Promega, Milano, Italy), a colorimetric method for determining the number of viable cells in proliferation assays. The assay contains solutions of a tetrazolium compound (Owen's reagent; MTS) and an electron coupling reagent (phenazine methosulphate; PMS). MTS is bioreduced by cells into a formazan that is soluble in tissue culture medium. The absorbance of the formazan at 490 nm can be measured directly from 96 well assay plates (Zatelli M C, et al., 2000 J Clin Endocrinol Metab 85: 847-852; Cory A H, et al., 1991 Cancer Commun 3: 207-212). The conversion of MTS into the aqueous soluble formazan is accomplished by dehydrogenase enzymes found in metabolically active cells. The quantity of formazan product as measured by the amount of 490 nm absorbance is directly proportional to the number of living cells in culture.
Briefly, adenoma cells were plated in 96-multiwell plates (2×10^4 cells/well) and incubated for 48 hours in a medium supplemented with 10% FBS in the presence or absence of each SRIF analogue (including in one instance, compounds 2 & 3 together) at a concentration of 10^−9 M. Treatments were renewed by adding fresh analogues to the wells after the first 24 hours of incubation. At the end of the incubation period, 20 μl of a combined MTS/PMS solution was added to each well with a repeating pipette, and the plates were incubated for an additional 4 hours at 37° C. in a humidified 5% CO2 atmosphere. The absorbance at 490 nm was then recorded using an ELISA plate reader (EASIA Reader, Medgenix). Results (absorbance at 490 nm) were obtained by determining the mean value of at least six experiments in eight replicates.

pituitary adenoma cells [2] = assay: DNA synthesis: [3H]thymidine incorporation in pituitary adenoma cells; type: cell-based; conditions: 10^-9 M, 48 h incubation, medium with 10% FBS, pituitary cells from functioning adenomas
Procedure: The effects of SSTR selective agonists and antagonists on pituitary adenoma cell DNA synthesis were assessed by determining the rate of [^3H]thymidine incorporation, as previously described (Davis L, et al., 1994 In: Basic methods in Molecular Biology, 2nd edition, Appleton & Lange, Norwalk, Conn., USA: 611-646, degli Uberti E C, et al., 1991 J Clin Endocrinol Metab 72: 1364-1371).
Approximately 10^5 pituitary cells from two functioning adenomas were plated in quadruplicate wells the day of surgery and treated the day after with SRIF and with Compounds 1, 2, 3, and LANREOTIDE at 10^−9M. After 48 h incubation in a medium supplemented with 10% FBS in the presence of [^3H]thy (1.5 μCi/mL; 87 Ci/mmol) with or without each SRIF analogue. Treatments were renewed by adding fresh analogues to the wells after the first 24 h of incubation, without removing the medium.
After incubation, the cells were washed three times with ice-cold PBS and twice with 10% ice-cold trichloroacetic acid (TCA). TCA-precipitated material was solubilized in 500 μL 0.2 mol/L sodium hydroxide and 0.1% SDS. Cell-associated radioactivity was then counted in a scintillation spectrometer. Results (counts per min per well) were obtained by determining the mean value of at least six experiments in quadruplicate. The viability of cells in control and treated cultures was evaluated by Trypan blue staining.

Compound	% Reduction Viable Cells (pituitary adenoma cells [1]) [%]	% Reduction [3H]Thymidine (pituitary adenoma cells [2]) [%]
C[C@@H](OCc1ccccc1)[C@H](NC(=O)[C@H]1CSSC[C@@H](NC(=O)CN(CCN)C(=O)Cn2ccc(N)nc2=O)C(=O)N[C@@H](Cc2cccnc2)C(=O)N[C@H](Cc2c[nH]c3ccccc23)C(=O)N[C@@H](CCCCN)C(=O)N1)C(=O)N[C@@H](Cc1ccc(O)cc1)C(N)=O [Compound 1, Caeg-c(D-Cys-Pal-D-Trp-Lys-D-Cys)-Thr(Bzl)-Tyr-NH2] (X1-[Gly(N-2-aminoethyl)][dC][3Pal][dW]K[dC]T(Bn)Y-NH2; disulfide 2-6)	28.5	–
CC(C)[C@@H]1NC(=O)[C@H](CCCCN)NC(=O)[C@@H](Cc2c[nH]c3ccccc23)NC(=O)[C@H](Cc2ccc(O)cc2)NC(=O)[C@@H](NC(=O)[C@H](N)Cc2ccc3ccccc3c2)CSSC[C@@H](C(=O)N[C@H](C(N)=O)[C@@H](C)O)NC1=O [LANREOTIDE, D-Nal-cyclo[Cys-Tyr-D-Trp-Lys-Val-Cys]-Thr-NH2, reference compound]	12.	25.
C[C@H](N)C(=O)NCC(=O)N[C@H]1CSSC[C@@H](C(=O)O)NC(=O)[C@H](CO)NC(=O)[C@H]([C@@H](C)O)NC(=O)[C@H](Cc2ccccc2)NC(=O)[C@H]([C@@H](C)O)NC(=O)[C@H](CCCCN)NC(=O)[C@H](Cc2c[nH]c3ccccc23)NC(=O)[C@H](Cc2ccccc2)NC(=O)[C@H](Cc2ccccc2)NC(=O)[C@H](CC(N)=O)NC(=O)[C@H](CCCCN)NC1=O [SRIF, reference compound]	8.	–
CC[C@@H]1NC(=O)[C@H](CCCCN)NC(=O)[C@@H](Cc2c[nH]c3ccccc23)NC(=O)[C@H](Cc2ccc(O)cc2)NC(=O)[C@@H]2Cc3ccccc3CN2C(=O)[C@H](Cc2ccccc2)NC1=O [Compound 2, cyclo[Tic-Tyr-D-Trp-Lys-Abu-Phe]] (cyclo([Tic]Y[dW]K[Abu]F))	12.5	25.
C[C@@H](O)[C@H](NC(=O)[C@H](Cc1ccccc1)NC(=O)[C@@H](NC(=O)[C@H](CCCCN)NC(=O)[C@@H](Cc1c[nH]c2ccccc12)NC(=O)[C@H](Cc1c[nH]c2ccccc12)NC(=O)[C@H](Cc1ccccc1)NC(=O)[C@H](N)Cc1ccccc1)[C@@H](C)O)C(N)=O [Compound 3, D-Phe-Phe-Trp-D-Trp-Lys-Thr-Phe-Thr-NH2]	–	15.5
